Measured values reported in patent US10414759B2, “Phenylthiazoles and uses thereof” (Purdue Research Foundation, priority 2017, dated 2019).
Values after ≈ are worked out from the molar mass of the structure shown. Like-named read-outs stand apart in the source and are kept apart here.

Columns and labels:
VRE ATCC 700221 = experiment: MIC/MBC clinical isolate panel (Table 3); type: cell-based, Enterococcus faecium; settings: Enterococcus, Table 3, VRE ATCC 700221
Procedure: MRSA clinical isolates, and vancomycin-resistant Staphylococcus aureus (VRSA) strain were obtained through the Network of Antimicrobial Resistance in Staphylococcus aureus (NARSA) program. In addition, vancomycin-resistant Enterococcus faecium (VRE) strain was obtained from the ATCC. Bacteria were cultured in cation-adjusted Mueller Hinton broth in a 96-well plate. Compounds, using triplicate samples, were added to the plate and serially diluted. […] Plates were visually inspected and the MIC was categorized as the concentration at which no visible growth of bacteria was observed. The average of triplicate MIC determinations is reported.
The minimum inhibitory concentration (MIC) of tested compounds and control antibiotics were determined using the broth microdilution method in accordance with the recommendations contained in the Clinical and Laboratory Standards Institute guidelines, against methicillin-sensitive (ATCC 6538 and NRS107), methicillin-resistant (MRSA), and vancomycin-resistant (VRSA) Staphylococcus aureus, Staphylococcus epidermidis, Enterococcus faecalis, E. faecium, Listeria monocytogenes, and Streptococcus pneumoniae clinical isolates. A bacterial solution equivalent to 0.5 McFarland standard was prepared and diluted in cation-adjusted Mueller-Hinton broth (CAMHB) to achieve a bacterial concentration of about 5×10^5 CFU/mL and seeded in 96-well plates. Enterococcus faecium was diluted in brain heart infusion broth. Enterococcus faecalis, Streptococcus pneumonia and Listeria monocytogenes were diluted in tryptone soya broth (TSB). Compounds and control drugs were added in the first row of 96-well plates and serially diluted (to achieve a concentration gradient ranging from 128 to 1 μg/mL). Plates were then incubated aerobically at 37° C. for at least 18 hours. The minimum bactericidal concentration (MBC) of the active compounds was tested by plating 5 μL from wells with no growth onto Tryptic soy agar (TSA) plates.

NRS382 (MRSA USA100) = experiment: MIC/MBC clinical isolate panel (Table 3); type: cell-based, S. aureus; settings: Staphylococcus aureus, Table 3, NRS382 (MRSA USA100)
Procedure: (§1) Bacteria were cultured in cation-adjusted Mueller Hinton broth in a 96-well plate. Compounds, using triplicate samples, were added to the plate and serially diluted. […] Plates were visually inspected and the MIC was categorized as the concentration at which no visible growth of bacteria was observed. The average of triplicate MIC determinations is reported.
(§2) A bacterial solution equivalent to 0.5 McFarland standard was prepared and diluted in cation-adjusted Mueller-Hinton broth (CAMHB) to achieve a bacterial concentration of about 5×10^5 CFU/mL and seeded in 96-well plates. Enterococcus faecium was diluted in brain heart infusion broth. Enterococcus faecalis, Streptococcus pneumonia and Listeria monocytogenes were diluted in tryptone soya broth (TSB).

NRS383 (MRSA USA200) = experiment: MIC/MBC clinical isolate panel (Table 3); type: cell-based, S. aureus; settings: Staphylococcus aureus, Table 3, NRS383 (MRSA USA200)
Procedure: as §1, §2

NRS119 (MRSA) = experiment: MIC/MBC clinical isolate panel (Table 3); type: cell-based, S. aureus; settings: Staphylococcus aureus, Table 3, NRS119 (MRSA)
Procedure: as §1, §2

NRS72 (MSSA) = experiment: MIC/MBC clinical isolate panel (Table 3); type: cell-based, S. aureus; settings: Staphylococcus aureus, Table 3, NRS72 (MSSA)
Procedure: as §1, §2

NRS384 (MRSA USA300) = experiment: MIC/MBC clinical isolate panel (Table 3); type: cell-based, S. aureus; settings: Staphylococcus aureus, Table 3, NRS384 (MRSA USA300)
Procedure: as §1, §2

NRS123 (MRSA USA400) = experiment: MIC/MBC clinical isolate panel (Table 3); type: cell-based, S. aureus; settings: Staphylococcus aureus, Table 3, NRS123 (MRSA USA400)
Procedure: as §1, §2

[1] = Plasma pharmacokinetics after single oral dose in rats; type: in vivo, Sprague-Dawley (SD) rats
Procedure: This assay has been conducted at a credited bioequivalence center (http://www.grc-me.com/pk_pd.html). Pharmacokinetic studies were performed in male naïve Sprague-Dawley (SD) rats, (three animals) following Institutional Animal Care and Use Committee guidelines. Oral dosing was administered by gavage in a vehicle containing 5% ethanol, 45% PEG 400, and 50% water. Blood samples were collected over a 24 h period post dose into Vacutainer tubes containing EDTA-K2. Plasma was isolated, and the concentration of compound 17 in plasma was determined with LC/MS/MS after protein precipitation with acetonitrile.
Non-compartmental pharmacokinetic analysis was performed on plasma concentration data to calculate pharmacokinetic parameters using Kinetica® 2000 (release 4.4.1).

[2] = PBS solubility screen (turbidometric); type: physicochemical; settings: aqueous buffer, kinetic from dmso stock
Procedure: The solutions were diluted 100-fold into PBS in a 96-well plate and mixed. The absorbance of the PBS-containing plate was measured prior to addition of the test agents to determine the background absorbance. After 2 h, the presence of precipitate was detected by turbidity (absorbance at 540 nm). […] The solubility limit is reported as the highest experimental concentration with no evidence of turbidity.

[3] = Metabolic stability in human liver microsomes; type: in vitro ADME; settings: pH 7.4, human liver microsomes
Procedure: The tested compounds were incubated in duplicate with human liver microsomes at 37° C. The reaction contained microsomal protein in 100 mM potassium phosphate, 2 mM NADPH, 3 mM MgCl2, pH 7.4. A control was run for each test agent omitting NADPH to detect NADPH-free degradation. At 0, 10, 20, 40, and 60 minutes, an aliquot was removed from each experimental and control reaction and mixed with an equal volume of ice-cold Stop Solution (methanol containing haloperidol, diclofenac, or other internal standard). Stopped reactions are incubated at least ten minutes at −20° C., and an additional volume of water was added. The samples were centrifuged to remove precipitated protein, and the supernatants were analyzed by LC/MS/MS to quantitate the remaining parent. Data are converted to % remaining by dividing by the time zero concentration value. Data are fit to a first-order decay model to determine half-life. Intrinsic clearance is calculated from the half-life and the protein concentrations: CLint=ln(2)/(T1/2 [microsomal protein]).

Caco-2 cells = experiment: Caco-2 bidirectional permeability assay
[4] = Table 6, single oral dose (30 mg/Kg) to rats
[5] = male, Sprague-Dawley, rat, plasma, Table 6, single oral dose (30 mg/Kg) to rats

- MIC (VRE ATCC 700221; read-out: MIC): 2 µg/mL (≈ 5.89 µM)
- MIC (NRS382 (MRSA USA100); read-out: MIC): 2 µg/mL (≈ 5.89 µM)
- MIC (NRS383 (MRSA USA200); read-out: MIC): 2 µg/mL (≈ 5.89 µM)
- MIC (NRS119 (MRSA); read-out: MIC): 2 µg/mL (≈ 5.89 µM)
- MIC (NRS72 (MSSA); read-out: MIC): 2 µg/mL (≈ 5.89 µM)
- MIC (NRS384 (MRSA USA300); read-out: MIC): 2 µg/mL (≈ 5.89 µM)
- MIC (NRS123 (MRSA USA400); read-out: MIC): 2 µg/mL (≈ 5.89 µM)
- thalf [1, 4]: 8.24 h
- λz [1, 4]: 0.19 h⁻¹
- MRT ([1]; male, Sprague-Dawley, rat, plasma, po, text b112, SD rats, 50 mg/Kg orally, read-out: in vivo mean residence time (MRT)): ~8 h
- AUC [1, 5]: 100000 ng·h/mL
- AUC(0-t) [1, 5]: 83200 ng·h/mL
- Tmax [1, 5]: 4.67 h
- MRT ([1]; male, Sprague-Dawley, rat, plasma, Table 6, single oral dose (30 mg/Kg) to rats, read-out: MRT (mean residence time)): 7.74 h
- Cmax ([1]; male, Sprague-Dawley, rat, po, text b112, SD rats, 50 mg/Kg orally, plasma): 9300 ng/mL
- Cmax ([1]; male, Sprague-Dawley, rat, Table 6, single oral dose (30 mg/Kg) to rats, plasma): 9330 ng/mL
- solubility at 2 h [2]: 55 µM (≈ 18.7 µg/mL)
- microsomal CLint ([3]; NADPH omitted, read-out: NADPH-free Clint): 0.5 µL/min/mg
- half-life ([3]; NADPH omitted, read-out: NADPH-free t1/2): > 1 h
- microsomal CLint ([3]; with NADPH, read-out: NADPH-dependent CLint): 3 to 7.5 µL/min/mg
- half-life ([3]; with NADPH, read-out: NADPH-dependent t1/2): 5.13 h
- Mean A→B Papp (Caco-2 cells; Caco-2, apical to basolateral): 1.6 ×10⁻⁶ cm/s
- Mean B→A Papp (Caco-2 cells; Caco-2, basolateral to apical): 2.8 ×10⁻⁶ cm/s
- Efflux ratio (Caco-2 cells; Papp (B→A)/Papp (A→B)): 1.8
Structure (SMILES): CCCCc1ccc(-c2nc(C)c(-c3ccnc(NN)n3)s2)cc1 [Compound 17, 2-(4-Butylphenyl)-5-(2-hydrazinopyrimidin-4-yl)-4-methylthiazole]
- MBC (VRE ATCC 700221; read-out: MBC): 8 µg/mL (≈ 23.6 µM)
- MBC (NRS382 (MRSA USA100)): 4 µg/mL (≈ 11.8 µM)
- MBC (NRS383 (MRSA USA200)): 2 µg/mL (≈ 5.89 µM)
- MBC (NRS119 (MRSA)): 2 µg/mL (≈ 5.89 µM)
- MBC (NRS72 (MSSA)): 8 µg/mL (≈ 23.6 µM)
- MBC (NRS384 (MRSA USA300)): 2 µg/mL (≈ 5.89 µM)
- MBC (NRS123 (MRSA USA400)): 2 µg/mL (≈ 5.89 µM)
